Data published in patent US10272081B2, “SHIP1 modulators and methods related thereto” (Aquinox Pharmaceuticals (Canada) Inc., priority 2013, dated 2019).

Tests used:
[1] = system: passive cutaneous anaphylaxis in mice; assay: Passive cutaneous anaphylaxis in mice; type: in vivo; conditions: oral gavage, doses less than 20 mg/kg
Procedure: The activity of representative compounds on passive cutaneous anaphylaxis in mice was evaluated according to the procedures disclosed by Ovary, J Immunol 81, 355-357, 1958 and Halpern et al., Br J Pharmacol Chemother 20, 389-398, 1963, both of which are incorporated herein by reference in their entirety.
To induce a passive cutaneous anaphylaxis, mice undergo intradermal ear inoculation on their right ear with 25 ng in 20 μL of anti-DNP-IgE. The left ears are untreated and serve as negative controls. Twenty-four hours after inoculation, all mice are administered test compound by oral gavage (PO). Sixty minutes after oral administration, mice are given a tail vein injection of 2% Evan's Blue (0.2 μm filtered, in 200 μL saline) followed by a second tail IV injection of 100 μg DNP-HSA (in 200 μL). Sixty minutes following the DNP-HAS injection, mice are euthanized using CO2 inhalation. Subsequently, ear biopsies are performed by taking four millimetre punches from both ears, which then undergo Evan's Blue extraction using formamide incubation in 96 well plates. Eighty μL of eluents are transferred to flat-bottom 96-well plates and absorbance read using SpectraMax M5 spectrophotometer (Molecular Devices, Sunnyvale, Calif., USA) at 620 nm. Background readings from all samples are taken at 740 nm and subtracted from the 620 nm readings. Data are reported as OD.

His-hSHIP1 enzyme [2] = target: T1, His-hSHIP1 enzyme (Homo sapiens, UniProt Q92835); assay: His-hSHIP1 activity, approach 1 (phosphate release from IP4, Biomol Green); type: biochemical; conditions: activation of His-hSHIP1; IP4 50 μM; test compound 0-300 μM; no asterisk in Table 2
T1 construct: His
T1 sequence (Q92835 1-1189): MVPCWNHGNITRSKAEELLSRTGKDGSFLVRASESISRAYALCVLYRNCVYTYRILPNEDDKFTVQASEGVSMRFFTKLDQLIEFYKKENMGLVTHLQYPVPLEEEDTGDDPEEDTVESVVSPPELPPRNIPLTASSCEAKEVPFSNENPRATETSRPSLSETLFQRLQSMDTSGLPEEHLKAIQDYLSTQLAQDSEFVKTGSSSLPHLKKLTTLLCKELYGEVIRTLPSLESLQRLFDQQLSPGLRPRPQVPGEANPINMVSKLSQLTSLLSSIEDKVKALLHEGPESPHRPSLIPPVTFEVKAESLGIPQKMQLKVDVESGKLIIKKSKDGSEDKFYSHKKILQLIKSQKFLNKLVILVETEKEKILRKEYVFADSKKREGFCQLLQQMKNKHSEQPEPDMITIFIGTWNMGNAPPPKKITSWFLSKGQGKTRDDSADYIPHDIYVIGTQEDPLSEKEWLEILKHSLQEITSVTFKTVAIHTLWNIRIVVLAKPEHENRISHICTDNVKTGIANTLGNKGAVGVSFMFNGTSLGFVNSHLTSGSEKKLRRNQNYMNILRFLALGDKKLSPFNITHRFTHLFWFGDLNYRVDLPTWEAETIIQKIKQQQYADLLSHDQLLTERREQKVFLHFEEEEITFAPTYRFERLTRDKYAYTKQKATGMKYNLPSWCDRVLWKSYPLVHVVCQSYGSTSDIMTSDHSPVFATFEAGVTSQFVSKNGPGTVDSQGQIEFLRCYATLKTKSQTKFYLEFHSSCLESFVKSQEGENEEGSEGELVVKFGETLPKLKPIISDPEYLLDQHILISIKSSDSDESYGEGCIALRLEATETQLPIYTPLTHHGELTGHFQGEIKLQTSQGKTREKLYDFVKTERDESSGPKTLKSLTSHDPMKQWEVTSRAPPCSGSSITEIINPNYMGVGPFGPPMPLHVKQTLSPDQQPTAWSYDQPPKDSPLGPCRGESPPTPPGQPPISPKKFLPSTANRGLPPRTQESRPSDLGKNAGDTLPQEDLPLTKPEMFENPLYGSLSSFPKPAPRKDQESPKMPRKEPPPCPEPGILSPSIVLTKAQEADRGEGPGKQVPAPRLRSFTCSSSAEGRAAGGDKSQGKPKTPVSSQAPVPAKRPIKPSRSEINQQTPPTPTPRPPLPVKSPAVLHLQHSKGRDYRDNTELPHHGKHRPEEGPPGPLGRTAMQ
Procedure: (§1) Test compounds are dissolved in 95% ethanol to form stock solutions. Before screening, the stock solutions are diluted with Phosphatase Assay Buffer (20 mM Tris-HCL, 10 mM MgCl2 pH 7.5, 0.02% Tween 20) to form working assay solutions that contain 10% ethanol. The assay is carried out on 96-well microtiter plates using a modified procedure of that reported by Ong et al., Blood 110, 1942-1949, 2007 and Yang et al., Org Lett 7, 1073-1076, 2005, both of which references are incorporated herein by reference in their entirety.
Data were generated by one of two variant methods. Test compounds are screened by one of two approaches described as follows. In the first approach, each reaction contains 5 μL of His-hSHIP1 enzyme (5-20 ng), 10 μL of the substrate, 1,3,4,5-inositol tetrakisphosphate (IP4; 50 μM final), 5 μL of Phosphatase Assay Buffer, and 5 µL of test compound at various concentrations in 10% ethanol (0-300 μM final). Control blanks are also prepared by replacing His-hSHIP1 enzyme, IP4, or test compounds with Phosphatase Assay Buffer. After adding the reaction components in a 96-well microtiter plate on ice, the reaction is mixed by briefly shaking the plate vigorously. The reaction is then incubated at 37° C. for 15 min with gentle shaking followed by addition of 100 μL of Biomol Green Reagent (BIOMOL, Pa., USA) to terminate the reaction. The free phosphate released from IP4 by His-hSHIP1 binds to the Biomol Green Reagent, which turns the dye to green color. After incubating the mixture for 20 min at room temperature for color development, the absorbance is read with SpectraMax Plus 96-well plate reader (Molecular Devices, Sunnyvale, Calif., USA) at a wavelength of 650 nm.

[3] = system: Akt phosphorylation in Molt-4 (SHIP1+) lymphocytes; assay: Akt phosphorylation in lymphocytes, Molt-4 (Western blot); type: cell-based; design: key: +: inhibits Akt phosphorylation at 10 μM; −: no effect on Akt phosphorylation at 10 μM; conditions: 10 μM; IGF-1 stimulated Molt-4 (PTEN−/SHIP1+) cells
Procedure: (§2) Jurkat (PTEN−/SHIP1−) or Molt-4 (PTEN−/SHIP1+) cells are starved in serum free RPMI for overnight. In a 15 mL conical tube, 2-3 million serum starved cells (1 million cells per mL) are treated with various concentrations of test compound (0.1, 1, or 10 μM final in 0.1% DMSO) for 30 min at 37° C. followed by stimulation with 100 ng/mL of IGF-1 for 1 hour at 37° C. After stimulation, cells are washed once with ice-cold DPBS and lysed with Lysis Buffer (20 mM Tris-HCl, pH 7.5, 140 mM NaCl, 1% NP-40, Complete Mini Protease Inhibitor Cocktail, 10 mM NaF, 1 mM Na3VO4, 1 mM β-glycerolphosphate) on ice for 30 min with vortexing every 10 min. Samples are then centrifuged at 13,000 rpm for 20 min, and supernatants are collected as total cell lysate samples. Protein concentration is determined using bicinchonic acid assay, and about 15 μg of total protein from each sample is loaded and separated on a 4-12% Tris-Glycine gel. After SDS-PAGE, proteins are transferred from the gel to a nitrocellulose membrane. The membrane is blocked in 5% BSA in PBS containing 0.1% Tween-20 (PBS-T) for 1 hour at room temperature before probing with primary antibodies for overnight at 4° C. The following antibodies are used: mouse anti-SHIP1 (1:500 dilution; Santa Cruz, Calif., USA), rabbit anti-phospho-Akt(Ser473) (1:1000 dilution; Cell Signaling Technologies, MA, USA), rabbit anti-Akt (1:1000; Cell Signaling Technologies, MA, USA), and rabbit anti-actin (1:2000; Cell Signaling Technologies, MA, USA). The membrane is then incubated with goat anti-rabbit or anti-mouse secondary antibodies (1:3000) for 1 hour at room temperature. Target proteins on the membrane are detected with ECL solution and exposed on a film.

[4] = system: Akt phosphorylation in Jurkat (SHIP1−) lymphocytes; assay: Akt phosphorylation in lymphocytes, Jurkat (Western blot); type: cell-based; design: key: +: inhibits Akt phosphorylation at 10 μM; −: no effect on Akt phosphorylation at 10 μM; conditions: 10 μM; IGF-1 stimulated Jurkat (PTEN−/SHIP1−) cells
Procedure: as §2

His-hSHIP1 enzyme [5] = target: T1, His-hSHIP1 enzyme; assay: His-hSHIP1 activity, approach 2 (ratio of initial velocities IP4 25/IP4 250); type: biochemical; design: key: +++: higher than reference or reference - 15%; ++: reference - 16% to reference - 30%; +: reference - 31% or lower; conditions: ratio of initial velocities IP4 25/IP4 250 versus reference SHIP1 activator; asterisk in Table 2
Procedure: as §1
In the second approach, a master mix is prepared that contains […] (0.4-1.6 ng/μL final), 25 μL of the substrate, IP4 (25 or 250 μM final), and 50 μL of test compound in 3.3% ethanol ([…]). Control blanks are also prepared by replacing His-hSHIP1 enzyme, IP4, or test compounds with Phosphate Assay Buffer. […] Each reaction component is preincubated at 37° C. for 30 min before adding to a 96-well microtiter plate. The master mix is then incubated at 37° C. At time 0, 20, 25 and 30 min, 25 μL of the master mix is removed and transferred to a new 96-well microtiter plate, to which 100 μL of Biomol Green Reagent is added to stop the reaction. After incubating the mixture for 20 min at room temperature for color development, the absorbance is read with SpectraMax Plus 96-well plate reader at a wavelength of 650 nm. Phosphate released is plotted against time to calculate the initial velocities (i.e., slope of the graph) at each IP4 concentration. The initial velocities are baseline corrected and the ratio of initial velocities (IP425/IP4250) is calculated and used to rate the test compounds.

| Scoring, Approach 1 (% increase relative to background) (His-hSHIP1 enzyme [2]) | Scoring, Approach 2 (Initial velocity Ratio) (His-hSHIP1 enzyme [5]) | Structure (SMILES) | % Inhibition of allergen-induced passive cutaneous anaphylaxis [1] | Molt-4 (SHIP +), Akt phosphorylation [3] | Jurkat (SHIP1 −), Akt phosphorylation [4] |
| --- | --- | --- | --- | --- | --- |
| + (0 < x < 50) |  | CC1(C)CCC[C@]2(C)[C@@H](COc3cc(O)cc(O)c3)[C@](C)(O)CC[C@@H]12 [Compound No. 38, 5-{[(1S,2R,4aS,8aS)-2-hydroxy-2,5,5,8a-tetramethyl-decahydronaphthalen-1-yl]methoxy}benzene-1,3-diol] | +++ (>50% inhibition) |  |  |
| + (0 < x < 50) |  | Cc1cc(O)cc(C(=O)[C@H]2C(C)C(N)C[C@H]3C(C)(C)CCC[C@]23C)c1.Cl (stereo partly drawn) [Compound No. 22, 3-{[(1S,4aS,8aS)-3-amino-2,5,5,8a-tetramethyl-decahydronaphthalen-1-yl]carbonyl}-5-methylphenol hydrochloride] |  | + | − |
|  | +++ | Cc1cc(O)cc(C(=O)[C@H]2[C@H](C)C(C(=O)O)C[C@H]3C(C)(C)CCC[C@]23C)c1 (stereo partly drawn) [Compound No. 68, (3S,4S,4aS,8aS)-4-[(3-hydroxy-5-methylphenyl)carbonyl]-3,4a,8,8-tetramethyl-decahydronaphthalene-2-carboxylic acid] |  | − | − |
|  | +++ | Cc1cc(O)cc(C[C@H]2[C@@H](C(=O)O)CC[C@H]3C(C)(C)CCC[C@]23C)c1 [Compound No. 20, (1S,2S,4aS,8aR)-1-[(3-hydroxy-5-methylphenyl)methyl]-5,5,8a-trimethyl-decahydronaphthalene-2-carboxylic acid] |  | − | − |
|  | +++ | C[C@@H]1[C@H](NC(=N)N)C[C@H]2C(C)(C)CCC[C@]2(C)[C@H]1C(=O)c1cc(O)cc(O)c1 [Compound No. 178, 1-[(2R,3S,4S,4aS,8aS)-4-[(3,5-dihydroxyphenyl)carbonyl]-3,4a,8,8-tetramethyl-decahydronaphthalen-2-yl]guanidine] |  |  |  |
| +++ (x ≥65) |  | C[C@H]1CC[C@H]2C(C)(C)CCC[C@]2(C)[C@H]1CC(O)c1cc(O)cc(O)c1 (stereo partly drawn) [Compound No. 58, 5-{2-[(1S,2S,4aS,8aR)-2,5,5,8a-tetramethyl-decahydronaphthalen-1-yl]-1-hydroxyethyl}benzene-1,3-diol] | +++ (>50% inhibition) |  |  |
|  | ++ | CC1(C)CCC[C@]2(C)[C@@H](Cc3cc(O)cc(O)c3)[C@@H](C(=O)O)CC[C@@H]12 [Compound No. 157, (1S,2S,4aS,8aR)-1-[(3,5-dihydroxyphenyl)methyl]-5,5,8a-trimethyl-decahydronaphthalene-2-carboxylic acid] |  |  |  |
|  | ++ | Cc1cc(O)cc(C(=O)[C@H]2[C@H](C)[C@H](NS(C)(=O)=O)C[C@H]3C(C)(C)CCC[C@]23C)c1 [Compound No. 176, N-[(2R,3S,4S,4aS,8aS)-4-[(3-hydroxy-5-methylphenyl)carbonyl]-3,4a,8,8-tetramethyl-decahydronaphthalen-2-yl]methanesulfonamide] |  |  |  |
